Assay results: patent publication US20040048866A1 (priority 2002, published 2004)

Biological target: T1, α1 and β1 subunits of guanylate cyclase (sGC), expressed in Sf9 cells (Homo sapiens, UniProt Q02108+Q02153)
T1 construct: made in house; host or cells: Sf9 insect cells (baculovirus co-infection); high-speed supernatant used unpurified
T1 sequence (Q02108 1-690): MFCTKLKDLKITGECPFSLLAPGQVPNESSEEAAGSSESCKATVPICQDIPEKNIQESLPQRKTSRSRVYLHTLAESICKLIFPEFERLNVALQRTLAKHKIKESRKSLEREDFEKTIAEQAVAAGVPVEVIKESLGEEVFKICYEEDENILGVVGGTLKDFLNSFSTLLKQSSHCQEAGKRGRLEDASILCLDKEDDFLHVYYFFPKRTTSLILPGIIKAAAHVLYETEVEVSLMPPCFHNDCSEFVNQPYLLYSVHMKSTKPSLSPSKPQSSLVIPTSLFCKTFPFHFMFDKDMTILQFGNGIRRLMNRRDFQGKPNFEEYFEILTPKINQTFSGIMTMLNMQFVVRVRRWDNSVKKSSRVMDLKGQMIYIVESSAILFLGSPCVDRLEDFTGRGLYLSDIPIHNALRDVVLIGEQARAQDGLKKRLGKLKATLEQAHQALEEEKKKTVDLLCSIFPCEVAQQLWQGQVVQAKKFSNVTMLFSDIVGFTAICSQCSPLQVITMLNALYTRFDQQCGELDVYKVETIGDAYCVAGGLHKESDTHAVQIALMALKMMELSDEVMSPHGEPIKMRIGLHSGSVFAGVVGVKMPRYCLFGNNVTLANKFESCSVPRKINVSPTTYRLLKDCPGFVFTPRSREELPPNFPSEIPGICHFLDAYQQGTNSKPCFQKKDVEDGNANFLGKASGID
T1 sequence (Q02153 1-619): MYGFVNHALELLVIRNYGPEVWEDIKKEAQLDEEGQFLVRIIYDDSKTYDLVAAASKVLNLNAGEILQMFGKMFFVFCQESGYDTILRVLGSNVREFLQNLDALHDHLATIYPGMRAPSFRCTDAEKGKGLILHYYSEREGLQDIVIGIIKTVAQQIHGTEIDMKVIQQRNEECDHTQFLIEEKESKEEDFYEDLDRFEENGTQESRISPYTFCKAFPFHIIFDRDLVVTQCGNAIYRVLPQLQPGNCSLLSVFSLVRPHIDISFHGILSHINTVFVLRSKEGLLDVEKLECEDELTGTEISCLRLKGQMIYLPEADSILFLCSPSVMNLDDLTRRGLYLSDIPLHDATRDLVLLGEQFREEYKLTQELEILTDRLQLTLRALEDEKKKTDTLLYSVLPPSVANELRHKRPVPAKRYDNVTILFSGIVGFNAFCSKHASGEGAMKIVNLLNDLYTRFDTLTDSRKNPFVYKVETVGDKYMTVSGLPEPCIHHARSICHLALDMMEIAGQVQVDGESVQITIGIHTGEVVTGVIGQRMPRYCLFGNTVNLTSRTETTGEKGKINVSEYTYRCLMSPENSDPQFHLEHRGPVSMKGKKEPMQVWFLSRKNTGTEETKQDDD
Experiment: Guanylate Cyclase Assay (formation of cyclic GMP from GTP)
Format: biochemical
Conditions: for Mean activation at 100 μM: (activity at 100 μM with 1 μM SNP − activity at 100 μM)/(activity of SNP at 1 μM − basal activity of sGC); for Mean efficacy at 100 μM with 1 μM of SNP, [% of YC-1]: compound at 100 μM with 1 μM sodium nitroprusside (SNP), normalized to 100 μM YC-1 (without SNP) as 100%; for Emax at 100 µM / Mean basal efficacy at 100 μM, [% of YC-1]: compound at 100 μM without SNP, normalized to activity of 100 μM YC-1 (without SNP) as 100%; for Emax at 100 µM: read-out: Mean basal efficacy at 100 μM, [% of YC-1]
Protocol: Sf9 cells were cultured in Sf-90011 medium supplemented with 10% (v/v) fetal calf serum at 28° C. to give a count of 6×10^5 cells/ml. The cells were then infected with a mixture of the virus stocks for the α1 and β1 subunits of guanylate cyclase at a multiplicity of infection of 0.1 pfu/cell. The cells were harvested 72 hours after infection and were pelleted by centrifugation. The resulting cell pellets were homogenized with Polytron homogenizer in 3 volumes of 20 mM Tris-HCl (pH 7.6) containing 1 mM EDTA, 5 mM dithiothreitol, 90 mM NaCl, 10% glycerol, and protease inhibitors mix (Roche Molecular Biochemicals). The homogenate was centrifuged at 50,000×g for 60 minutes and the supernatant was aliquotted and stored at −80° C.
Compounds of the present invention were dissolved in DMSO to make 100 mM and saved as stocks at −20° C. When compounds were tested, 10-fold concentrated solutions with 10% DMSO were prepared. 10 μl of 10-fold concentrated compound solutions were added to the reaction mixture total of 100 μl.
Guanylate cyclase activity was measured by the formation of cyclic GMP from GTP in a total volume of 100 μl. Guanylate cyclase-expressed Sf9 cell high-speed supernatant (Sf9 high-speed sup) was used as an enzyme source for the assay. The reaction mixture containing 0.1 μl enzyme of Sf9 high-speed sup, compound solution, 50 mM Tris-HCl (pH 7.6), 4 mM MgCl2, 0.5 mM IBMX, 15 mM creatine phosphate, 20 μg creatine phosphokinase, 0.1% BSA and 1 mM GTP were incubated at 37° C. for 15 minutes. After the reaction, 0.9 ml of 50 mM sodium acetate buffer (pH 5.8) was added followed by boiling for 3 minutes to stop the reaction. The solution was centrifuged at 3000 rpm for 15 minutes at room temperature and cyclic GMP in 20 μl of the resulting supernatant was measured according to the protocol of Amersham cyclic GMP enzymeimmunoassay system (Amersham, RPN 226).
Compounds of the present invention were tested at 100 μM with and without 1 μM of sodium nitroprusside (SNP). YC-1 was included as a standard for each assay. The data was normalized with the activity of 100 μM YC-1 (without SNP) as 100%. Mean basal efficacy, in Table 1, was expressed as a percentage of 100 μM YC-1 (without SNP).
The mean activation, in Table 1, was calculated based on the formula: (activity of compound of the present invention at 100 μM with 1 μM SNP)−(activity of compound of on at 100 μM)/(activity of SNP at 1 μM)−(basal activity of sGC).

CCCC(CO)NC(=O)c1ccccc1Oc1nn(Cc2ccccc2)c2ccccc12 (centres unmarked) [Example 21, 2-[(1-benzyl-1H-indazol-3-yl)oxy]-N-[1-(hydroxymethyl)butyl]benzamide]
Mean activation at 100 μM: 1.9 | Mean efficacy at 100 μM with 1 μM of SNP, [% of YC-1]: 15 % of YC-1 | Emax at 100 µM: 5%

c1ccc(Cn2nc(Oc3ccccn3)c3ccccc32)cc1 [Example 11, 1-benzyl-3-(2-pyridinyloxy)-1H-indazole]
Mean activation at 100 μM: 2.8 | Mean efficacy at 100 μM with 1 μM of SNP, [% of YC-1]: 70 % of YC-1 | Emax at 100 µM: 9%

c1ccc(Cn2nc(Oc3ncccn3)c3ccccc32)cc1 [Example 12, 1-benzyl-3-(2-pyrimidinyloxy)-1H-indazole]
Mean activation at 100 μM: 2.6 | Mean efficacy at 100 μM with 1 μM of SNP, [% of YC-1]: 43 % of YC-1 | Emax at 100 µM: -1%

CN(C)CCCN1CCN(C(=O)c2ccccc2Oc2nn(Cc3ccccc3)c3ccccc23)CC1 [Example 17, N-[3-(4-{2-[(1-benzyl-1H-indazol-3-yl)oxy]benzoyl}-1-piperazinyl)propyl]-N,N-dimethylamine]
Mean activation at 100 μM: 2.0 | Mean efficacy at 100 μM with 1 μM of SNP, [% of YC-1]: 14 % of YC-1 | Emax at 100 µM: 4%

O=C(N[C@H]1Cc2ccccc2[C@H]1O)c1ccccc1Oc1nn(Cc2ccccc2)c2ccccc12 [Example 20, 2-[(1-benzyl-1H-indazol-3-yl)oxy]-N-[(1R,2S)-1-hydroxy-2,3-dihydro-1H-inden-2-yl]benzamide]
Mean activation at 100 μM: 1.5 | Mean efficacy at 100 μM with 1 μM of SNP, [% of YC-1]: 11 % of YC-1 | Emax at 100 µM: 6%

O=C(NCC(O)c1ccccc1)c1ccccc1Oc1nn(Cc2ccccc2)c2ccccc12 (centres unmarked) [Example 22, 2-[(1-benzyl-1H-indazol-3-yl)oxy]-N-(2-hydroxy-2-phenylethyl)benzamide]
Mean activation at 100 μM: 2.1 | Mean efficacy at 100 μM with 1 μM of SNP, [% of YC-1]: 13 % of YC-1 | Emax at 100 µM: 2%

C(=Cc1ccccc1)Cn1nc(OCc2ccccc2)c2ccccc21 [Example 27, 3-(benzyloxy)-1-[3-phenyl-2-propenyl]-1H-indazole]
Mean activation at 100 μM: 1.7 | Mean efficacy at 100 μM with 1 μM of SNP, [% of YC-1]: 18 % of YC-1 | Emax at 100 µM: -2%

O=C(NN1CCOCC1)c1ccccc1Oc1nn(Cc2ccccc2)c2ccccc12 [Example 25]
Mean activation at 100 μM: 1.9 | Mean efficacy at 100 μM with 1 μM of SNP, [% of YC-1]: 14 % of YC-1 | Mean basal efficacy at 100 μM, [% of YC-1]: 4 % of YC-1

OCc1ccc(-c2nn(Cc3ccccc3)c3ccccc23)o1 [YC-1, reference compound]
Mean activation at 100 μM: 2.7 | Mean efficacy at 100 μM with 1 μM of SNP, [% of YC-1]: 224 % of YC-1 | Mean basal efficacy at 100 μM, [% of YC-1]: 100 % of YC-1

O=C(O)c1ccc(Cn2nc(OCc3ccccc3)c3ccccc32)o1 [Example 28, 5-{[3-(benzyloxy)-1H-indazol-1-yl]methyl}-2-furoic acid]
Mean activation at 100 μM: 1.9 | Mean efficacy at 100 μM with 1 μM of SNP, [% of YC-1]: 27 % of YC-1 | Emax at 100 µM: 6%

CN(C)CCCNC(=O)c1ccc(Oc2nn(Cc3ccccc3)c3ccccc23)o1 [Example 5, 5-[(1-benzyl-1H-indazol-3-yl)oxy]-N-[3-(dimethylamino)propyl]-2-furamide]
Mean activation at 100 μM: 1.7 | Mean efficacy at 100 μM with 1 μM of SNP, [% of YC-1]: 65 % of YC-1 | Emax at 100 µM: 4%

NC(=O)c1cccnc1Oc1nn(Cc2ccccc2)c2ccccc12 [Example 14, 2-[(1-benzyl-1H-indazol-3-yl)oxy]nicotinamide]
Mean activation at 100 μM: 1.8 | Mean efficacy at 100 μM with 1 μM of SNP, [% of YC-1]: 23 % of YC-1 | Emax at 100 µM: 0%

OCc1ccc(Oc2nn(Cc3ccccc3)c3ccccc23)o1 [Example 1, {5-[(1-benzyl-1H-indazol-3-yl)oxy]-2-furyl}methanol]
Mean efficacy at 100 μM with 1 μM of SNP, [% of YC-1]: 38 % of YC-1 | Emax at 100 µM: 9%

O=C(O)c1ccccc1Oc1nn(Cc2ccccc2)c2ccccc12 [Example 15, 2-[(1-benzyl-1H-indazol-3-yl)oxy]benzoic acid]
Mean activation at 100 μM: 2.6 | Mean efficacy at 100 μM with 1 μM of SNP, [% of YC-1]: 47 % of YC-1 | Emax at 100 µM: 4%

CN1CCCC1CCNC(=O)c1ccccc1Oc1nn(Cc2ccccc2)c2ccccc12 (centres unmarked) [Example 23, 2-[(1-benzyl-1H-indazol-3-yl)oxy]-N-[2-(1-methyl-2-pyrrolidinyl)ethyl]benzamide]
Mean activation at 100 μM: 2.2 | Mean efficacy at 100 μM with 1 μM of SNP, [% of YC-1]: 15 % of YC-1 | Emax at 100 µM: 3%

O=C(NCC1CCCCC1O)c1ccccc1Oc1nn(Cc2ccccc2)c2ccccc12 (centres unmarked) [Example 26, 2-[(1-benzyl-1H-indazol-3-yl)oxy]-N-[(2-hydroxycyclohexyl)methyl]benzamide]
Mean activation at 100 μM: 2.0 | Mean efficacy at 100 μM with 1 μM of SNP, [% of YC-1]: 12 % of YC-1 | Emax at 100 µM: 1%

FC(F)(F)c1cncc(Oc2nn(Cc3ccccc3)c3ccccc23)c1 [Example 13, 1-benzyl-3-{[5-(trifluoromethyl)-3-pyridinyl]oxy}-1H-indazole]
Mean activation at 100 μM: 1.4 | Mean efficacy at 100 μM with 1 μM of SNP, [% of YC-1]: 15 % of YC-1 | Emax at 100 µM: 3%

CCCC(CO)NC(=O)c1ccc(Oc2nn(Cc3ccccc3)c3ccccc23)o1 (centres unmarked) [Example 7, 5-[(1-benzyl-1H-indazol-3-yl)oxy]-N-[1-(hydroxymethyl)butyl]-2-furamide]
Mean activation at 100 μM: 3.1 | Mean efficacy at 100 μM with 1 μM of SNP, [% of YC-1]: 25 % of YC-1 | Emax at 100 µM: 3%

O=C(NCC(O)c1ccccc1)c1ccc(Oc2nn(Cc3ccccc3)c3ccccc23)o1 (centres unmarked) [Example 9, 5-[(1-benzyl-1H-indazol-3-yl)oxy]-N-(2-hydroxy-2-phenylethyl)-2-furamide]
Mean activation at 100 μM: 1.6 | Mean efficacy at 100 μM with 1 μM of SNP, [% of YC-1]: 13 % of YC-1 | Emax at 100 µM: 0%

O=C(NCCCn1ccnc1)c1ccccc1Oc1nn(Cc2ccccc2)c2ccccc12 [Example 24, 2-[(1-benzyl-1H-indazol-3-yl)oxy]-N-[3-(1H-imidazol-1-yl)propyl]benzamide]
Mean activation at 100 μM: 1.7 | Mean efficacy at 100 μM with 1 μM of SNP, [% of YC-1]: 12 % of YC-1 | Emax at 100 µM: 5%
